Source: ChEMBL document CHEMBL1201862, “PubChem BioAssay data set” (2004)
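Cells were grown in 96-well plates and exposed to each compound for 48 hours at five concentrations; endpoints were interpolated linearly between bracketing concentrations, or set to the highest concentration if not reached. At the GI50, growth is halved.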 The source made the active and inactive calls. No stated cut-off is given here; in the data, active = GI50 up to about 1.1 µM and inactive = higher.

Columns and labels:
Test in all cases: NCI tumour cell line growth inhibition, 48 h
EKVX = system: EKVX
SK-MEL-2 = system: SK-MEL-2
NCI-H460 = system: NCI-H460
TK-10 = system: TK-10
SNB-19 = system: SNB-19
Hs-578T = system: Hs-578T
SK-MEL-28 = system: SK-MEL-28
OVCAR-4 = system: OVCAR-4
OVCAR-5 = system: OVCAR-5
NCI-H522 = system: NCI-H522
A549 = system: A549
IGROV-1 = system: IGROV-1
RPMI-8226 = system: RPMI-8226
MCF7 = system: MCF7
UO-31 = system: UO-31
MDA-MB-231 = system: MDA-MB-231
HCT-116 = system: HCT-116
SNB-75 = system: SNB-75
NCI/ADR-RES = system: NCI/ADR-RES
SR = system: SR

| SMILES | GI50 (EKVX) | GI50 (SK-MEL-2) | GI50 (NCI-H460) | GI50 (TK-10) | GI50 (SNB-19) | GI50 (Hs-578T) | GI50 (SK-MEL-28) | GI50 (OVCAR-4) | GI50 (OVCAR-5) | GI50 (NCI-H522) | GI50 (A549) | GI50 (IGROV-1) | GI50 (RPMI-8226) | GI50 (MCF7) | GI50 (UO-31) | GI50 (MDA-MB-231) | GI50 (HCT-116) | GI50 (SNB-75) | GI50 (NCI/ADR-RES) | GI50 (SR) |
| --- | --- | --- | --- | --- | --- | --- | --- | --- | --- | --- | --- | --- | --- | --- | --- | --- | --- | --- | --- | --- |
| COC[C@@H](/N=C/c1ccc([N+](=O)[O-])cc1)C(C)C | > 100 µM (inactive) | > 100 µM (inactive) | > 100 µM (inactive) | > 100 µM (inactive) | > 100 µM (inactive) | > 100 µM (inactive) | > 100 µM (inactive) | > 100 µM (inactive) | > 100 µM (inactive) | > 100 µM (inactive) | > 100 µM (inactive) | > 100 µM (inactive) | 25.2 µM (inactive) | 95.1 µM (inactive) | > 100 µM (inactive) | 3.24 µM (inactive) | 26 µM (inactive) | > 100 µM (inactive) | > 100 µM (inactive) | 92.7 µM (inactive) |
| N#CC(C#N)[C@@H]1CCC=C(Sc2ccccc2)[C@H]1Sc1ccccc1 | 4.54 µM (inactive) | 3.07 µM (inactive) | 3.56 µM (inactive) | 1.86 µM (inactive) | 12.8 µM (inactive) | 5.16 µM (inactive) | 2.72 µM (inactive) | 4.6 µM (inactive) | 5.58 µM (inactive) | 2.19 µM (inactive) | 3.28 µM (inactive) | 2.29 µM (inactive) | 2.28 µM (inactive) | 2.95 µM (inactive) | 5.31 µM (inactive) | 4.05 µM (inactive) | 2.11 µM (inactive) | 5.08 µM (inactive) | 2.72 µM (inactive) | 1.97 µM (inactive) |
| Cc1cc(NC(=O)NC(=O)c2ccccc2N)ccc1Oc1ncc(Br)cn1 | 0.0826 µM (active) | < 0.01 µM (active) | < 0.0112 µM (active) | 0.239 µM (active) | < 0.0137 µM (active) | < 0.01 µM (active) | < 0.01 µM (active) | 4.78 µM (inactive) | 0.0396 µM (active) | < 0.01 µM (active) | 0.0112 µM (active) | < 0.011 µM (active) | 0.025 µM (active) | < 0.01 µM (active) | 0.0535 µM (active) | < 0.01 µM (active) | < 0.0124 µM (active) | 0.0117 µM (active) | < 0.01 µM (active) | < 0.0631 µM (active) |
| CC(C)(C)OC(=O)N(O)CCCn1cnc2c(NC3CC3)ncnc21 | > 100 µM (inactive) | > 100 µM (inactive) | > 100 µM (inactive) | > 100 µM (inactive) | > 100 µM (inactive) | > 100 µM (inactive) | > 100 µM (inactive) | > 100 µM (inactive) | > 100 µM (inactive) | > 100 µM (inactive) | > 100 µM (inactive) | 75.3 µM (inactive) | > 100 µM (inactive) | > 100 µM (inactive) | > 100 µM (inactive) | > 100 µM (inactive) | > 100 µM (inactive) | 35.1 µM (inactive) | > 100 µM (inactive) | > 100 µM (inactive) |
| Cc1c(C)c2c(c(N)c1C#N)C(=O)N(N)C2=O | > 100 µM (inactive) | > 100 µM (inactive) | > 100 µM (inactive) | > 100 µM (inactive) | > 100 µM (inactive) | > 100 µM (inactive) | > 100 µM (inactive) | > 100 µM (inactive) | > 100 µM (inactive) | > 100 µM (inactive) | > 100 µM (inactive) | > 100 µM (inactive) | > 100 µM (inactive) | > 100 µM (inactive) | 93.3 µM (inactive) | > 100 µM (inactive) | 84.9 µM (inactive) | 47 µM (inactive) | > 100 µM (inactive) | 26.3 µM (inactive) |
| O=C(/C=C\c1ccccc1)Oc1ccc(/C=C2\CCC/C(=C\c3ccc(OC(=O)/C=C\c4ccccc4)cc3)C2=O)cc1 | > 100 µM (inactive) | > 100 µM (inactive) | > 100 µM (inactive) | > 100 µM (inactive) | > 100 µM (inactive) | > 100 µM (inactive) | > 100 µM (inactive) | > 100 µM (inactive) | > 100 µM (inactive) | > 100 µM (inactive) | > 100 µM (inactive) | – | > 100 µM (inactive) | > 100 µM (inactive) | > 100 µM (inactive) | > 100 µM (inactive) | > 100 µM (inactive) | 56.5 µM (inactive) | > 100 µM (inactive) | > 100 µM (inactive) |
| COC(=O)C#Cc1ccc([N+](=O)[O-])cc1 | 1.76 µM (inactive) | 3.69 µM (inactive) | 13.1 µM (inactive) | 1.89 µM (inactive) | 2.75 µM (inactive) | 2.84 µM (inactive) | 1.96 µM (inactive) | 1.7 µM (inactive) | 2.16 µM (inactive) | 1.75 µM (inactive) | 2.74 µM (inactive) | 1.81 µM (inactive) | 0.665 µM (active) | 1.91 µM (inactive) | 1.42 µM (inactive) | 2.09 µM (inactive) | 1.15 µM (inactive) | 3.14 µM (inactive) | 2.87 µM (inactive) | 0.325 µM (active) |
